Source: patent publication US20150094294A1, “COMPOUNDS AND METHODS FOR TREATING MALARIA” (Cellceutix Corporation, priority 2012, published 2015)

Tests used:
Format in all cases: cell-based
[1] = tested on: P. falciparum 3D7 (chloroquine-sensitive); assay: Anti-malarial activity, P. falciparum 3D7 culture, 72 hour, DNA content by flow cytometry; settings: synchronized ring-stage parasites
Method: Numerous compounds were screened in cultures of the malaria parasite P. falciparum 3D7 (chloroquine-sensitive) and DD2 (chloroquine-resistant). The compounds were also screened for toxixcity against 3T3 cells, HepG2 cells, and in a hemolysis assay. In brief, P. falciparum parasites were cultured in RPMI 1640 (Invitrogen) supplemented with Albumax II (Invitrogen). For synchronization, schizont stage parasites were magnet purified using a SuperMACS™ II Cell Separation Unit (Miltenyi Biotech). For IC50 determinations, synchronized ring-stage parasites were plated at 0.5% parasitemia and 8% hematocrit in 96-well plates at a total volume of 50 μL. Serial dilutions of 2× concentration of the respective compound, ranging from 2.5 μM to 20 nM, were added to the wells to bring the total volume up to 100 μL and 4% hematocrit. Compounds were assayed for a 72 hour period, after which the cultures were fixed with a solution of 4% paraformaldehyde and 0.08% glutaraldhyde in PBS. The cells were then permeabilized with 0.25% Triton X-100, and SYTOX Green Nucleic Acid Stain (Invitrogen) in PBS was added to a final concentration of 5 μM. DNA content, as an indicator of parasitemia, was analyzed on an Accuri C6 Flow Cytometer with C-Sampler. IC50 curves were generated using GraphPad Prism (GraphPad Software).

HepG2 cells = assay: Cytotoxicity against HepG2 cells
3T3 cells = assay: Cytotoxicity against 3T3 cells

| SMILES | IC50 [1] [µM] | EC50 (HepG2 cells) [µM] | EC50 (3T3 cells) [µM] |
| --- | --- | --- | --- |
| N=C(N)NCCCCC(=O)Nc1cc(F)cc(NC(=O)c2cc(C(=O)Nc3cc(F)cc(NC(=O)CCCCNC(=N)N)c3SCCN)ncn2)c1SCCN [Compound 105] | 0.225 | 81 | 44 |
| N=C(N)NCCCCCC(=O)Nc1cc(C(F)(F)F)cc(NC(=O)c2cc(C(=O)Nc3cc(C(F)(F)F)cc(NC(=O)CCCCCNC(=N)N)c3SCCN)ncn2)c1SCCN [Compound 106] | 0.286 | 89 | 79 |
| CCN(CC)CCN(CCN)c1c(Cl)cc(C(F)(F)F)cc1NC(=O)Nc1cc(C(F)(F)F)cc(Cl)c1N(CCN)CCN(CC)CC [Compound 124] | 0.32 | 24 | 20 |
| CCN(CC)CCN(CCN)c1ccc(C(F)(F)F)cc1NC(=O)Nc1cc(C(F)(F)F)ccc1N(CCN)CCN(CC)CC [Compound 126] | 0.66 | 562 | 140 |
| CCN(CC)CCN(CCN)c1c(F)cc(C(F)(F)F)cc1NC(=O)Nc1cc(C(F)(F)F)cc(F)c1N(CCN)CCN(CC)CC [Compound 127] | 0.738 | 413 | 132 |
| N=C(N)NCCCOc1cccc(-c2cncc(-c3cccc(OCCCNC(=N)N)c3)c2)c1 [Compound 133] | 0.116 | 551 | 295 |
| N=C(N)NCCCc1cccc(-c2cc(-c3cccc(CCCNC(=N)N)c3)ncn2)c1 [Compound 135] | 0.131 | 697 | 623 |
| N=C(N)NCCCOc1cc(OCCCNC(=N)N)c(-c2cccc(F)c2)cc1-c1cccc(F)c1 [Compound 138] | 0.226 | 85 | 78 |
| N=C(N)NCCc1cccc(NC(=O)c2cc(C(=O)Nc3cccc(CCNC(=N)N)c3)nc(SCCN)n2)c1 [Compound 182] | 0.56 | 345 | 330 |
| O=C(Nc1ccc(O[C@@H]2CCNC2)c(C(F)(F)F)c1)c1cc(C(=O)Nc2ccc(O[C@@H]3CCNC3)c(C(F)(F)F)c2)ncn1 [Compound 187] | 0.041 | 130 | 42 |
| Nc1cccc(NC(=O)c2cc(C(=O)Nc3cccc(N)n3)ncn2)n1 [Compound 189] | > 2 | > 1000 | > 1000 |
| N=C(N)N1CC[C@@H](Oc2ccc(NC(=O)c3cc(C(=O)Nc4ccc(O[C@@H]5CCN(C(=N)N)C5)c(C(F)(F)F)c4)ncn3)cc2C(F)(F)F)C1 [Compound 190] | 0.026 | 41 | 33 |
| CC(C)(C)c1cc(NC(=O)c2cccc(C#N)c2)c(SCCN)c(NC(=O)c2cc(C(=O)Nc3cc(C(C)(C)C)cc(NC(=O)c4cccc(C#N)c4)c3SCCN)ncn2)c1 [Compound 198] | 0.005 | 30 | 7 |
| O=C(Nc1ccc(OC2CCNCC2)cc1)c1cc(C(=O)Nc2ccc(OC3CCNCC3)cc2)ncn1 [Compound 199] | 0.01 | 353 | 192 |
| CN(C)CCSc1ccc(NC(=O)c2cc(C(=O)Nc3ccc(SCCN(C)C)cc3)ncn2)cc1 [Compound 202] | 0.007 | 648 | 632 |
| O=C(Nc1ccc(OC2CCNC2)c(F)c1)c1cc(C(=O)Nc2ccc(OC3CCNC3)c(F)c2)ncn1 (stereo not drawn) [Compound 209] | 0.066 | 516 | 431 |
| O=C(Nc1ccc(N2CCNCC2)cc1)c1cccc(C(=O)Nc2ccc(N3CCNCC3)cc2)n1 [Compound 211] | > 0.1 | > 1000 | > 1000 |

| SMILES | IC50 [1] [µM] | EC50 (HepG2 cells) [µM] | EC50 (3T3 cells) [µM] |
| --- | --- | --- | --- |
| CN(C)C1CCN(c2ccc(NC(=O)c3cc(C(=O)Nc4ccc(N5CCC(N(C)C)CC5)cc4)ncn3)cc2)CC1 [Compound 213] | 0.035 | 51 | 244 |
| Nc1cc(NC(=O)c2cc(C(=O)Nc3ccc(N4CCNCC4)c(F)c3)ncn2)ccc1N1CCNCC1 [Compound 218] | 0.056 | 233 | 46 |
| NCCCOc1cccc(-c2cncc(-c3ccc(-c4cncc(-c5cccc(OCCCN)c5)c4)s3)c2)c1 [Compound 225] | 0.461 | 179 | 35 |
| N=C(N)NCCCOc1cccc(-c2cncc(-c3ccc(-c4cncc(-c5cccc(OCCCNC(=N)N)c5)c4)s3)c2)c1 [Compound 227] | 0.65 | 117 | 54 |
| N=C(N)NCCc1cccc(-c2cncc(-c3ccc(-c4cncc(-c5cccc(CCNC(=N)N)c5)c4)cc3)c2)c1 [Compound 231] | 0.369 | > 1000 | 998 |
| Cn1c(-c2cccc(CCNC(=N)N)c2)cnc1-c1cccc(CCNC(=N)N)c1 [Compound 246] | 0.005 | > 1000 | > 1000 |
| N=C(N)NCCc1ccccc1-c1ccc(-c2ccccc2CCNC(=N)N)s1 [Compound 251] | 0.012 | 692 | 559 |
| N=C(N)NCCc1cccc(-c2cn(-c3cccc(CCNC(=N)N)c3)nn2)c1 [Compound 256] | 0.059 | > 1000 | > 1000 |
| CN1CCN(c2ccc(-c3ccc(-c4ccc(N5CCN(C)CC5)cc4)s3)cc2)CC1 [Compound 260] | > 0.1 | > 1000 | > 1000 |
| NCCCc1ccc(-c2ccc(-c3ccc(CCCN)cc3)s2)cc1 [Compound 263] |  | 1 | 6 |
| C[N+]1(C)CCN(c2ccc(-c3ccc(-c4ccc(N5CC[N+](C)(C)CC5)cc4)o3)cc2)CC1 [Compound 264] |  | > 1000 | > 1000 |
| Cn1c(-c2ccc(CCCN)cc2)cnc1-c1ccc(CCCN)cc1 [Compound 265] | > 0.1 | > 1000 | > 1000 |
| c1cc2sc3ccc(NC4CCNCC4)cc3c2cc1NC1CCNCC1 [Compound 295] |  | > 1000 | > 1000 |
| CN(C)C1CCN(c2ccc3sc4ccc(N5CCC(N(C)C)CC5)cc4c3c2)CC1 [Compound 297] |  | 675 | 518 |
| CCn1c2ccc(N3CCC(N(C)C)CC3)cc2c2cc(N3CCC(N(C)C)CC3)ccc21 [Compound 298] |  | > 1000 | > 1000 |
| NCCSc1c(NC(=O)c2cccnc2)cc(C(F)(F)F)cc1NC(=O)c1cc(C(=O)Nc2cc(C(F)(F)F)cc(NC(=O)c3cccnc3)c2SCCN)ncn1 [Compound 315] |  | 34 | 21 |

The next lines start with results.

| IC50 [1] [µM] | SMILES | EC50 (HepG2 cells) [µM] | EC50 (3T3 cells) [µM] |
| --- | --- | --- | --- |
| 1.55 | NCCSc1nc(-c2cccc(CCN)c2)cc(-c2cccc(CCN)c2)n1 [Compound 220] | > 1000 | > 1000 |
| 0.516 | NCCc1cccc(-c2cncc(-c3ccc(-c4cncc(-c5cccc(CCN)c5)c4)s3)c2)c1 [Compound 223] | 82 | 18 |
| 0.628 | NCCc1cccc(-c2cc(-c3ccc(-c4cc(-c5cccc(CCN)c5)ncn4)s3)ncn2)c1 [Compound 229] | 262 | 3 |
| 0.655 | NCCc1cccc(-c2cncc(-c3ccc(-c4cncc(-c5cccc(CCN)c5)c4)cc3)c2)c1 [Compound 234] | > 1000 | > 1000 |
| > 2 | NCCc1cccc(-c2ccc(-c3cccc(CCN)c3)cc2)c1 [Compound 235] | 156 | 14 |
| > 2 | NCCc1cccc(-c2ccc(-c3cccc(CCN)c3)s2)c1 [Compound 236] | 186 | < 14 |
| > 2 | NCCc1cccc(-c2ccc(-c3cccc(CCN)c3)o2)c1 [Compound 237] | 222 | 2 |
| 0.109 | N=C(N)NCCc1cccc(-c2ccc(-c3cccc(CCNC(=N)N)c3)s2)c1 [Compound 238] | 310 | 108 |
| 0.102 | N=C(N)NCCc1cccc(-c2ccc(-c3cccc(CCNC(=N)N)c3)cc2)c1 [Compound 239] | 288 | 149 |
| 0.121 | N=C(N)NCCc1cccc(-c2ccc(-c3cccc(CCNC(=N)N)c3)o2)c1 [Compound 240] | 904 | 461 |
| > 2 | NCCCOc1cccc(-c2ccc(-c3cccc(OCCCN)c3)s2)c1 [Compound 241] | 38 | 34 |
| > 2 | NCCc1cccc(-c2cnc(-c3cccc(CCN)c3)s2)c1 [Compound 242] | 584 | 71 |
| 0.058 | N=C(N)NCCc1cccc(-c2cnc(-c3cccc(CCNC(=N)N)c3)s2)c1 [Compound 243] | 723 | 523 |
| 0.149 | N=C(N)NCCCOc1cccc(-c2ccc(-c3cccc(OCCCNC(=N)N)c3)s2)c1 [Compound 244] | 19 | 20 |
| 0.541 | Cn1c(-c2cccc(CCN)c2)cnc1-c1cccc(CCN)c1 [Compound 245] | > 1000 | > 1000 |
| 0.034 | NCCc1ccc(-c2ccc(-c3ccc(CCN)cc3)s2)cc1 [Compound 247] | 74 | < 14 |
| 0.028 | NCCc1ccccc1-c1ccc(-c2ccccc2CCN)s1 [Compound 249] | 46 | 7 |
| 0.556 | NCCc1cccc(-c2cn(-c3cccc(CCN)c3)nn2)c1 [Compound 250] | > 1000 | > 1000 |
